Assay results taken from patent publication US9458219B2, “Human insulin analogue and acylated derivative thereof” (Shanghai Hengrui Pharmaceutical Co., Ltd., priority 2011, dated 2016).

How the values were obtained:
[1] = test system: rat models sufferring from diabetes (STZ); test: In vivo long-acting activity assay of PEGylated insulin; parameters: species or system Sprague-Dawley (SD) rats; conditions: for Blood glucose value (%): Humulin R 0.04, Detemir 0.2, PEG insulins 0.1 mg/kg; for AOC % / IP (Index of Prolongation): s.c.
Procedure: Sprague-Dawley (SD) rats, male, used in this experiment were purchased from SINO-BRITSH SIPPR/BK LAB. ANIMAL LTD., CO, License number: SCXK (Shanghai) 2008-0016, 18-20 g. The rats were fed in an environment of SPF level. ICR male mice were fed three days in a laboratory environment, at temperature of 20-25° C., and humidity of 40-60%. The mice were fasted for 8 hrs before the experiment. 100 mg/kg STZ was intraperitoneally injected to establish rat models sufferring from diabetes. Two days later, fasting blood glucose values were measured. […] At the beginning of the experiment, rats were weigh, and the blood glucose levels were measured (cut off tails and the blood glucose levels were detected by using Roche Glucometer and the corresponding test strips, similarly hereafter). On the basis of blood glucose values, rats were randomly divided into groups, 43 rats per group. The drug to be used was prepared in required concentrations. After subcutaneous injection of drugs, blood glucose levels were measured at multiple time points. IP (Index of Prolongation) was calculated according to blood glucose level.

[2] = test system: rat models sufferring from diabetes (STZ); test: In vivo long-acting activity assay of insulin derivatives; parameters: species or system Sprague-Dawley (SD) rats; conditions: s.c., Humulin R 0.04, Detemir 0.2, others 0.1 mg/kg
Procedure: The rats were fed in an environment of SPF level. […] 100 mg/kg STZ was intraperitoneally injected to establish rat models sufferring from diabetes. Two days later, fasting blood glucose values were measured. […] At the beginning of the experiment, rats were weigh, and the blood glucose levels were measured (cut off tails and the blood glucose levels were detected by using Roche Glucometer and the corresponding test strips, similarly hereafter). On the basis of blood glucose values, rats were randomly divided into groups, 43 rats per group. The drug to be used was prepared in required concentrations. After subcutaneous injection of drugs, blood glucose levels were measured at multiple time points. IP (Index of Prolongation) was calculated according to blood glucose level.

[3] = Table 5, Humulin R 0.04, Detemir 0.2, PEG (20 kD) insulins 0.1 mg/kg
[4] = Table 6, Humulin R 0.04, Detemir 0.2, PEG (30/40 kD) insulins 0.1 mg/kg

Detemir
Blood glucose value (%) ([1]; Table 5, 0 h): 100% | Blood glucose value (%) ([1]; Table 5, 1 h): 96.63% | Blood glucose value (%) ([1]; Table 5, 2 h): 57.24% | Blood glucose value (%) ([1]; Table 5, 4 h): 32.49% | Blood glucose value (%) ([1]; Table 5, 6 h): 40.98% | Blood glucose value (%) ([1]; Table 5, 8 h): 86.94% | Blood glucose value (%) ([1]; Table 5, 10 h): 112.66% | Blood glucose value (%) ([1]; Table 5, 12 h): 127.52% | AOC % [1, 3]: 7.39% | IP (Index of Prolongation) [1, 3]: 100 | AOC % [1, 4]: 5.92% | IP (Index of Prolongation) [1, 4]: 100 | Blood glucose value (%) ([1]; Table 6, time 0): 100.00% | Blood glucose value (%) ([1]; Table 6, time 1): 104.15% | Blood glucose value (%) ([1]; Table 6, time 2): 74.83% | Blood glucose value (%) ([1]; Table 6, time 3): 46.46% | Blood glucose value (%) ([1]; Table 6, time 4): 23.36% | Blood glucose value (%) ([1]; Table 6, time 6): 17.11% | Blood glucose value (%) ([1]; Table 6, time 8): 32.52% | Blood glucose value (%) ([1]; Table 6, time 10): 94.89% | Blood glucose value (%) ([1]; Table 6, time 12): 110.45% | Blood glucose level (%) ([2]; 0 h): 100.00% | Blood glucose level (%) ([2]; 0.5 h): 72.21% | Blood glucose level (%) ([2]; 1 h): 35.57% | Blood glucose level (%) ([2]; 2 h): 14.45% | Blood glucose level (%) ([2]; 4 h): 16.32% | Blood glucose level (%) ([2]; 6 h): 23.80% | Blood glucose level (%) ([2]; 8 h): 34.77% | Blood glucose level (%) ([2]; 10 h): 51.42% | Blood glucose level (%) ([2]; 12 h): 39.68% | Blood glucose level (%) ([2]; 14 h): 58.06% | Blood glucose level (%) ([2]; 16 h): 74.84% | Blood glucose level (%) ([2]; 18 h): 91.67% | Blood glucose level (%) ([2]; 20 h): 99.05% | AOC [2]: 69.2 | IP (Index of Prolongation) [2]: 100
